{"source": "paper PMC9037111", "about": "“Structure-based design, synthesis, and biological evaluation of novel piperine–resveratrol hybrids as antiproliferative agents targeting SIRT-2” (RSC Advances, 2021)", "assay_in_all_cases": "cells", "design_in_all_cases": "species or system NCI-60 human tumour cell lines; NCI-60 one-dose screen at 10 uM, percent growth inhibition versus untreated control cells", "key": {"RPMI-8226": {"test_system": "RPMI-8226", "conditions": "Homo sapiens, RPMI-8226; growth inhibition, one dose; read-out: Growth% inhibition / 5e", "method": "(§1) The antiproliferative activity of the target compounds 5a–h was screened against a panel of 60 cancer cell lines according to NCI-guidelines at concentration of 10 μM. The results for each compound (Table 1) were recorded as the percent of growth inhibition of treated cells compared to untreated control cells. […] In addition, 5b recorded significant activity against leukemia cancer cell lines K-562 and MOLT-4, Non-small cell lung cancer cell lines NCI-H322M and NCI-H460, Colon cancer cell lines COLO 205, HCT-15 and HCT-116, CNS cancer cell lines SF-295 and SF-539, Melanoma cancer cell lines LOX IMVI and UACC-62, Ovarian cancer cell lines NCI/ADR-RES, OVCAR-3, and OVCAR-4, Renal cancer cell lines CAKI-1, ACHN, and UO-31, and Breast cancer MCF7 cell line with growth inhibition percentage between 80 to 95. […] The methodology of the NCI anticancer screening has been described in detail elsewhere (https://dtp.cancer.gov/).[52]"}, "SNB-19": {"test_system": "SNB-19", "conditions": "Homo sapiens, SNB-19; growth inhibition, one dose; read-out: Growth% inhibition / 5e", "method": "as §1"}, "HCC-2998": {"test_system": "HCC-2998", "conditions": "Homo sapiens, HCC 2998; growth inhibition, one dose; read-out: Growth% inhibition / 5e", "method": "as §1"}, "M14": {"test_system": "M14", "conditions": "Homo sapiens, M14; growth inhibition, one dose; read-out: Growth% inhibition / 5e", "method": "as §1"}, "OVCAR-8": {"test_system": "OVCAR-8", "conditions": "Homo sapiens, OVCAR-8; growth inhibition, one dose; read-out: Growth% inhibition / 5e", "method": "as §1"}, "MOLT-4": {"test_system": "MOLT-4", "conditions": "Homo sapiens, MOLT-4; growth inhibition, one dose; read-out: Growth% inhibition / 5e", "method": "as §1"}, "UACC-257": {"test_system": "UACC-257", "conditions": "Homo sapiens, UACC-257; growth inhibition, one dose; read-out: Growth% inhibition / 5e", "method": "as §1"}, "PC-3": {"test_system": "PC-3", "conditions": "Homo sapiens, PC-3; growth inhibition, one dose; read-out: Growth% inhibition / 5e", "method": "as §1"}, "SR": {"test_system": "SR", "conditions": "Homo sapiens, SR; growth inhibition, one dose; read-out: Growth% inhibition / 5e", "method": "as §1"}, "LOX IMVI": {"test_system": "LOX IMVI", "conditions": "Homo sapiens, LOX IMVI; growth inhibition, one dose; read-out: Growth% inhibition / 5e", "method": "as §1"}, "HCT-116": {"test_system": "HCT-116", "conditions": "Homo sapiens, HCT-116; growth inhibition, one dose; read-out: Growth% inhibition / 5e", "method": "as §1"}, "SK-MEL-28": {"test_system": "SK-MEL-28", "conditions": "Homo sapiens, SK-MEL-28; growth inhibition, one dose; read-out: Growth% inhibition / 5e", "method": "as §1"}, "CAKI-1": {"test_system": "CAKI-1", "conditions": "Homo sapiens, CAKI-1; growth inhibition, one dose; read-out: Growth% inhibition / 5e", "method": "as §1"}, "UACC-62": {"test_system": "UACC-62", "conditions": "Homo sapiens, UACC-62; growth inhibition, one dose; read-out: Growth% inhibition / 5e", "method": "as §1"}, "MALME-3M": {"test_system": "MALME-3M", "conditions": "Homo sapiens, Malme-3M; growth inhibition, one dose; read-out: Growth% inhibition / 5e", "method": "as §1"}, "K-562": {"test_system": "K-562", "conditions": "Homo sapiens, K562; growth inhibition, one dose; read-out: Growth% inhibition / 5e", "method": "as §1"}, "BT-549": {"test_system": "BT-549", "conditions": "Homo sapiens, BT-549; growth inhibition, one dose; read-out: Growth% inhibition / 5e", "method": "as §1"}, "MDA-MB-231/ATCC": {"test_system": "MDA-MB-231/ATCC", "conditions": "Homo sapiens, MDA-MB-231; growth inhibition, one dose; read-out: Growth% inhibition / 5e", "method": "as §1"}}}
{"smiles": "CCN(CC)c1ccc(/C=N/NC(=O)/C=C/C=C/c2ccc3c(c2)OCO3)c(O)c1", "note": "[5e, (2E,4E)-5-(Benzo[d][1,3]dioxol-5-yl)-N′-((E)-4-(diethylamino)-2-hydroxybenzylidene)penta-2,4-dienehydrazide]", "values": [{"measurement": "inhibition at 10 µM", "setting": "RPMI-8226", "value": 46.4, "unit": "%"}, {"measurement": "inhibition at 10 µM", "setting": "SNB-19", "value": 39, "unit": "%"}, {"measurement": "inhibition at 10 µM", "setting": "HCC-2998", "value": 46, "unit": "%"}, {"measurement": "inhibition at 10 µM", "setting": "M14", "value": 63.6, "unit": "%"}, {"measurement": "inhibition at 10 µM", "setting": "OVCAR-8", "value": 67.1, "unit": "%"}, {"measurement": "inhibition at 10 µM", "setting": "MOLT-4", "value": 81.7, "unit": "%"}, {"measurement": "inhibition at 10 µM", "setting": "UACC-257", "value": 75.8, "unit": "%"}, {"measurement": "inhibition at 10 µM", "setting": "PC-3", "value": 59.1, "unit": "%"}, {"measurement": "inhibition at 10 µM", "setting": "SR", "value": 82.4, "unit": "%"}, {"measurement": "inhibition at 10 µM", "setting": "LOX IMVI", "value": 81.8, "unit": "%"}, {"measurement": "inhibition at 10 µM", "setting": "HCT-116", "value": 92.1, "unit": "%"}, {"measurement": "inhibition at 10 µM", "setting": "SK-MEL-28", "value": 48, "unit": "%"}, {"measurement": "inhibition at 10 µM", "setting": "CAKI-1", "value": 70.7, "unit": "%"}, {"measurement": "inhibition at 10 µM", "setting": "UACC-62", "value": 70.9, "unit": "%"}, {"measurement": "inhibition at 10 µM", "setting": "MALME-3M", "value": 43.5, "unit": "%"}, {"measurement": "inhibition at 10 µM", "setting": "K-562", "value": 82.4, "unit": "%"}, {"measurement": "inhibition at 10 µM", "setting": "BT-549", "value": 48.2, "unit": "%"}, {"measurement": "inhibition at 10 µM", "setting": "MDA-MB-231/ATCC", "value": 56.8, "unit": "%"}]}
